Laboratory results taken from patent US10941384B2, “Compositions and methods for promoting the generation of endocrine cells” (President and Fellows of Harvard College, priority 2013, dated 2021).
Values belong to the compound of their own block, whether it stands above or below them.

Legend:
[1] = tested on: Human C-peptide / insulin-expressing cells (H1-derived pancreatic progenitors); assay: High-content screen 2 and dose response: insulin-expressing cells by immunofluorescence (Cellomics); assay type: cell-based; conditions: for auto-fluorescence and toxicity in dose-curve measurements: at 6.75 M and 27 M
Experimental: hESC culture and differentiation. Protocol 2. Human ESCs were routinely cultured on hESC-certified matrigel (BD Biosciences) in mouse embryonic fibroblast conditioned hES media (MEF-CM). MEF-CM media was produced by conditioning hESC media for […] on a confluent layer of mouse embryonic fibroblasts and subsequently adding 20 ng/ml bFGF (Invitrogen). hES media was composed of DMEM/F12 (GIBCO) media supplemented with 20% KnockOut Serum Replacement (GIBCO), 2 mM Lglutamine (L-Glu, GIBCO), 1.1 mM 2-mercaptoethanol (GIBCO), 1 mM nonessential amino acids (GIBCO), 1× penicillin/strepto-mycin (P/S,GIBCO). Cells were passaged at the ratio of 1:6-1:20 every 4-7 days using TrypLE Express (Invitrogen).
To initiate differentiation the cells were dissociated using TrypLE Express to single cells and seeded at 150,000 cell/cm2 onto 1:30 dilution of growth factor reduced matrigel (BD Biosciences) in DMEM/F12 in MEF-CM media with 10 μM Y27632 (StemGent). Two days following seeding the differentiation was started. Cells were exposed to RPMI 1640 (Invitrogen) supplemented with 2% reagent grade BSA (Proliant) and 20 ng/ml human Wnt3a (R&D Systems)+100 ng/ml rhActivinA (R&D Systems)+8 ng/ml bFGF (Invitrogen) for the first day (stage 1.1). During day 2 and 3 the dayl media was used with the exception of Wnt3a (stage 1.2). During days 4-5 cells were treated with RPMI+2% BSA+50 ng/ml FGF7 (Peprotech) (stage 2). For days 6-9 cells were treated with DMEM-HG (Invitrogen)+0.1% Albumax BSA (Invitrogen)+1:200 ITS-X (Invitrogen)+50 ng/ml FGF7 (Peprotech)+2 μM RA (Sigma)+0.25 μM SANT-1 (Sigma)+20 ng/ml rhActivinA (R&D Systems)+100 ng/ml rhNoggin (R&D Systems) (stage 3). During days 10-12 cells were treated with DMEM-HG (Invitrogen)+0.1% Albumax BSA (Invitrogen)+1:200 ITS-X (Invitrogen)+100 ng/ml rhNoggin (R&D Systems)+0.25 μM SANT-1 (Sigma)+100 nM PDBu (EMD Biosciences) (stage 4). During days 13-15 cells were treated with DMEM-HG (Invitrogen)+0.1% Albumax BSA (Invitrogen)+1:200 ITS-X (Invitrogen)+100 ng/ml rhNoggin (R&D Systems)+1 μM Alk5 inhibitor (Axxora) (stage 5). PKC inhibitor Bisindolylmaleimide I (VWR) was added during stage 5.
High-content screen 2. The compound libraries used for this study: 400 compounds, including bioactive molecules, natural products, and 400 compounds that are known modulators of development or signaling pathways. For the chemical screen the day 8 cells were dispersed into single cells, using TrypLE, and replated at 150,000 cells/well of a 96 well plate in the presence of stage 3 media and 10 μM Y27632. Compounds were added to the wells on day 10 in stage 4 media, then again on days 12 and 14 in stage 5 media. Media was changed every other day suing the treatment. Cells were fixed using 4% paraformaldehyde (PFA, Sigma) on day 15 and stained using mouse antiglucagon and rabbit anti-c-peptide antibodies.
Screen 2: Immunostaining. Following 4% PFA fixation, cells were 3×5 min washed in PBS and blocked with 10% donkey serum (Jackson Immunoresearch) in PBS/0.3% Triton X. Primary antibodies were incubated overnight at 4 C. Secondary antibodies were incubated for 1 hr at room temperature. […]

[2] = tested on: HUES8 pancreatic progenitors; assay: Insulin cell number in HUES8 pancreatic progenitors in the presence of Noggin and Alk5 inhibitors; assay type: cell-based, human; conditions: HUES8, 6 days, in the presence of Noggin and Alk5 inhibitor, versus DMSO
From the text: FIGS. 1A-1K show high-content screens to increase the number of NGN3-expressing and insulin-expressing cells. FIG. 1A is a schematic showing the stepwise differentiation from hESCs to pancreatic endocrine cells. DE, definitive endoderm; PP, pancreatic progenitor; EP, endocrine progenitor; EN, endocrine cells. Scheme of high-content screen beginning with a population of cells that have differentiated into pancreatic progenitors. FIGS. 1B and 1F are schematic diagrams showing the method of high-content screen, which begins with a population of cells that have differentiated into pancreatic progenitors. FIGS. 1C and 1G show the chemical structures of a PKCβ inhibotor and Bisindolylmaleimide I compound identified from the screen. FIGS. 1D and 1H show an efficacy curve of the hit compounds. […] The hit compounds effect on HUES 8-pancreatic progenitor population. After 14 d of differentiation, the HUES 8-pancreatic progenitor populations were treated with 10 M PKCβ inhibitor for four days and then stained with NGN 3 antibody (green). NGN3, neurogenin 3. Scale bar is 100 m. […] Percentage of insulin-positive cells with s.d. […] The percentage of NGN3^+ cells was analyzed with the Cellomics high content screening system (Thermo Scientific). […] Insulin cell number with was counted over the same area in different wells. […]

[3] = tested on: INS, GCG and SST transcripts (H1-derived pancreatic progenitors); assay: qRT-PCR of endocrine hormone transcripts (INS, GCG, SST); assay type: cell-based, human; conditions: 3 day treatment
From the text: FIGS. 3A-3D show PKC agonists block the formation of insulin-expressing cells. […] Wells were stained for insulin and cell number counted in representative portions of the well by the Cellomics high content screening system. Error bars represent s.d. Two-tailed T-test p<0.05. […] Endocrine induction is blocked by PKC agonist TPB and reversed by Bis1. […] P<0.001. The decrease in INS and GCG expression due to TPB treatment is reversed by BisI. […] P<0.001.
H1-derived pancreatic progenitors were treated for 3 days with DMSO or 3 μM BisI. qRT-PCR for INS, GCG and SST performed and shown as fold change over DMSO control.

EC50 ([1]; Homo sapiens, H1, with Noggin and Alk5 inhibitor, FIG. 1H, read-out: EC50, total number of insulin-expressing cells): 0.848 µM
SMILES: CN(C)CCCn1cc(C2=C(c3c[nH]c4ccccc34)C(=O)NC2=O)c2ccccc21 [BisI, Bisindolylmaleimide I]
insulin-expressing cells ([1]; 1 M BisI, 6 days, DMSO-treated controls 0.9 0.1%): up to 2.7 0.8% | auto-fluorescence and toxicity in dose-curve measurements [1]: Significant auto-fluorescence and toxicity | auto-fluorescence and toxicity in dose-curve measurements ([1]; listed as Bisindolylmaleimide I): considerable auto-fluorescence and toxicity | increase of the numbers of insulin-expressing cells [2]: up to 7.5 fold | effect of TPB on INS and GCG expression in the presence of BisI ([3]; 3 M BisI + 5 M TPB): reversed

SMILES: CCCC(=O)O[C@@H]1[C@@H](C)[C@@]2(O)[C@@H](C=C(CO)C[C@]3(O)C(=O)C(C)=C[C@@H]23)[C@@H]2C(C)(C)[C@]12OC(=O)CCC [PdBu, phorbol 12,13-dibutyrate]
decline in endocrine differentiation, number of insulin+ cells ([1]; three-day treatment of H1-derived pancreatic progenitors (FIG. 3A: 1 M, 6 days)): 3.7 fold

SMILES: CC(C)[C@H]1C(=O)N[C@H](CO)Cc2cc(NC(=O)/C=C/C=C/c3ccc(C(F)(F)F)cc3)ccc2N1C [TPB, (2S,5S)-(E,E)-8-(5-(4-(trifluoromethyl)phenyl)-2,4-pentadienoylamino)benzolactam]
expression of endocrine hormones insulin and glucagon ([3]; 5 M TPB): decrease | effect on endocrine induction by Alk5 inhibitor (INS and GCG transcripts) ([3]; TPB combined with Alk5 inhibitor): sufficient to block the effect of Alk5 inhibitors on endocrine induction
